Measurements as given in paper doi:10.1101/2023.12.04.569845, “Identification of 4-(6-((2-methoxyphenyl)amino)pyrazin-2-yl)benzoic acids as CSNK2A inhibitors with antiviral activity and improved selectivity over PIM3” (bioRxiv, 2023).
Where two headings read alike, the source gives them in different places. Blank lines part the entries; values can stand above or below the compound they belong to.

Columns and labels:
Test in all cases: biochemical
Set-up in all cases: Thermal shift (DSF, SYPRO Orange) Tm shift of recombinant kinase domains at 10 uM compound
ABL1 = ABL1 (Homo sapiens, UniProt P00519)
BIKE = target: T1, BIKE (Homo sapiens, UniProt Q9NSY1)
T1 construct: gene BMP2K

BRAF = BRAF (Homo sapiens, UniProt P15056)
CSNK2a2 = target: T2, CSNK2a2 (Homo sapiens, UniProt P19784)
T2 construct: kinase domain

FLT1 = FLT1 (Homo sapiens, UniProt P17948)
JNK2 = target: T3, JNK2 (Homo sapiens, UniProt P45984)
T3 construct: gene MAPK9

MAP2K1 = MAP2K1 (Homo sapiens, UniProt Q02750)
MAP2K6 = target: T4, MAP2K6 (Homo sapiens, UniProt P52564)
T4 sequence (P52564 1-334): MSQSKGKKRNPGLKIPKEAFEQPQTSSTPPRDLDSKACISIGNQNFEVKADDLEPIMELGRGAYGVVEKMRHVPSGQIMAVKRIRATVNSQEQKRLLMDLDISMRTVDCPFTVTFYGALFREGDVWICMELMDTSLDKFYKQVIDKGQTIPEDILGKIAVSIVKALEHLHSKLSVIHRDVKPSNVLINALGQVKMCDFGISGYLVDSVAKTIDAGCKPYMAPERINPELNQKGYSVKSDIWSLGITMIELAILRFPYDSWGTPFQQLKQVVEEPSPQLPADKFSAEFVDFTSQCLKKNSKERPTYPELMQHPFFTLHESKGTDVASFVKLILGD

MER = target: T5, MER (Homo sapiens, UniProt Q12866)
T5 construct: gene MERTK
T5 sequence (Q12866 1-999): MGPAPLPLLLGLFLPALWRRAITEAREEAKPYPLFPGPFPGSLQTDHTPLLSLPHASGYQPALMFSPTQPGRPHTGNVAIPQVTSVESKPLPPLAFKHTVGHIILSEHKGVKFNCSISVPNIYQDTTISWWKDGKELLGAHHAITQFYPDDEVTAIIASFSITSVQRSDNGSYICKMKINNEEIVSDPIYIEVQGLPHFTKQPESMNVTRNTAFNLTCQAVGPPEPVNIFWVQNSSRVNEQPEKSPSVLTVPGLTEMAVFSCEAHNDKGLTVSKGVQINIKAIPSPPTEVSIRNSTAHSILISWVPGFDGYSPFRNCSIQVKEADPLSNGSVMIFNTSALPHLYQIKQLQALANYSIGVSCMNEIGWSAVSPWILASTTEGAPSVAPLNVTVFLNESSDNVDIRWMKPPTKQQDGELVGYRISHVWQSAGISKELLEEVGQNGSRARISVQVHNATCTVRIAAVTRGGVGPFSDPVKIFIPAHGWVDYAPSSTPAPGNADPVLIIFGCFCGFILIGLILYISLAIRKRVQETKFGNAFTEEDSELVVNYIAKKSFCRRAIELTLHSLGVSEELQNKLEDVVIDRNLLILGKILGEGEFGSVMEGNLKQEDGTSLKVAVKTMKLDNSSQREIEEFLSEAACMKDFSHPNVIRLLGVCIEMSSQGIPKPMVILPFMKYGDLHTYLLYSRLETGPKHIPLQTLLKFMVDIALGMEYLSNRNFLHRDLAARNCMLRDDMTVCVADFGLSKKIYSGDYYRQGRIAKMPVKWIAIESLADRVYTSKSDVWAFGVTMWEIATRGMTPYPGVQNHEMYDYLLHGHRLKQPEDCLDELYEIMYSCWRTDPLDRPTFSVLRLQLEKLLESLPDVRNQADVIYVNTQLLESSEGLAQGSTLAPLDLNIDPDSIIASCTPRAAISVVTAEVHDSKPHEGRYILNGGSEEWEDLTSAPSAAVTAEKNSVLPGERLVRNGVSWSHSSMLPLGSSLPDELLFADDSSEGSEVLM

PCTAIRE1 = target: T6, PCTAIRE1 (Homo sapiens, UniProt Q00536)
T6 construct: gene CDK16

ULK3 = target: T7, ULK3 (Homo sapiens, UniProt Q6PHR2)
T7 sequence (Q6PHR2 1-472): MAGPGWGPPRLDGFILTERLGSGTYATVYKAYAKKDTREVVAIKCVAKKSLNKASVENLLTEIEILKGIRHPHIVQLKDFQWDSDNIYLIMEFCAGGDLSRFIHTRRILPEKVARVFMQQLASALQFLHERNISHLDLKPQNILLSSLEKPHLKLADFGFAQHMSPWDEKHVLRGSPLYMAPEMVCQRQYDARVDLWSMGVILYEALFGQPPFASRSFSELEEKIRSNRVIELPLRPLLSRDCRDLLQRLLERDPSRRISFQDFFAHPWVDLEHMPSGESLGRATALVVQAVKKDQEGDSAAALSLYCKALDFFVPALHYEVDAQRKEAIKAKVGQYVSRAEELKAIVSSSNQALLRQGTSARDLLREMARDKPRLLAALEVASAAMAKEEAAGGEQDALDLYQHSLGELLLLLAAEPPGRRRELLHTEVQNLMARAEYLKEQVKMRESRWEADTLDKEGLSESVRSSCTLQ

T3 sequence (P45984 whole entry): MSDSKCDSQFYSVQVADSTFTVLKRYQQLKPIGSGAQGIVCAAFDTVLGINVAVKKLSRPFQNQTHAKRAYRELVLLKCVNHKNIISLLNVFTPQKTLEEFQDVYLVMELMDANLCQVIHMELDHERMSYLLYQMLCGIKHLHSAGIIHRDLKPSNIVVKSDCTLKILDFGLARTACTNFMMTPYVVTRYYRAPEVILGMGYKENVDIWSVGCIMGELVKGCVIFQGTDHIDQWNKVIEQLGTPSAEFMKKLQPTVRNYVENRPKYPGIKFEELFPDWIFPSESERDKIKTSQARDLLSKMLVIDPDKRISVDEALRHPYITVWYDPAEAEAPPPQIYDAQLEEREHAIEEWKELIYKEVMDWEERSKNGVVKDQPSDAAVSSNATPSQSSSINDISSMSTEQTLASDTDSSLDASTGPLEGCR
T2 sequence (P19784 whole entry, the tested form may be a part): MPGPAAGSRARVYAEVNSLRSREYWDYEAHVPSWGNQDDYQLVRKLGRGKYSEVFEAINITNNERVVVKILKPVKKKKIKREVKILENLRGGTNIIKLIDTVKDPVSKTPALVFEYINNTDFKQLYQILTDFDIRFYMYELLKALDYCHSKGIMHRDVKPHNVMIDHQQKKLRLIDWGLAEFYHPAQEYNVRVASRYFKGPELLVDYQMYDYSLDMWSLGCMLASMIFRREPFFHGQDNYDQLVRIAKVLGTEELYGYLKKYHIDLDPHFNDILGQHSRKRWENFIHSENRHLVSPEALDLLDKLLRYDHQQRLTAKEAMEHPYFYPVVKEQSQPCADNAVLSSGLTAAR
Sequence of FLT1 (P17948 whole entry): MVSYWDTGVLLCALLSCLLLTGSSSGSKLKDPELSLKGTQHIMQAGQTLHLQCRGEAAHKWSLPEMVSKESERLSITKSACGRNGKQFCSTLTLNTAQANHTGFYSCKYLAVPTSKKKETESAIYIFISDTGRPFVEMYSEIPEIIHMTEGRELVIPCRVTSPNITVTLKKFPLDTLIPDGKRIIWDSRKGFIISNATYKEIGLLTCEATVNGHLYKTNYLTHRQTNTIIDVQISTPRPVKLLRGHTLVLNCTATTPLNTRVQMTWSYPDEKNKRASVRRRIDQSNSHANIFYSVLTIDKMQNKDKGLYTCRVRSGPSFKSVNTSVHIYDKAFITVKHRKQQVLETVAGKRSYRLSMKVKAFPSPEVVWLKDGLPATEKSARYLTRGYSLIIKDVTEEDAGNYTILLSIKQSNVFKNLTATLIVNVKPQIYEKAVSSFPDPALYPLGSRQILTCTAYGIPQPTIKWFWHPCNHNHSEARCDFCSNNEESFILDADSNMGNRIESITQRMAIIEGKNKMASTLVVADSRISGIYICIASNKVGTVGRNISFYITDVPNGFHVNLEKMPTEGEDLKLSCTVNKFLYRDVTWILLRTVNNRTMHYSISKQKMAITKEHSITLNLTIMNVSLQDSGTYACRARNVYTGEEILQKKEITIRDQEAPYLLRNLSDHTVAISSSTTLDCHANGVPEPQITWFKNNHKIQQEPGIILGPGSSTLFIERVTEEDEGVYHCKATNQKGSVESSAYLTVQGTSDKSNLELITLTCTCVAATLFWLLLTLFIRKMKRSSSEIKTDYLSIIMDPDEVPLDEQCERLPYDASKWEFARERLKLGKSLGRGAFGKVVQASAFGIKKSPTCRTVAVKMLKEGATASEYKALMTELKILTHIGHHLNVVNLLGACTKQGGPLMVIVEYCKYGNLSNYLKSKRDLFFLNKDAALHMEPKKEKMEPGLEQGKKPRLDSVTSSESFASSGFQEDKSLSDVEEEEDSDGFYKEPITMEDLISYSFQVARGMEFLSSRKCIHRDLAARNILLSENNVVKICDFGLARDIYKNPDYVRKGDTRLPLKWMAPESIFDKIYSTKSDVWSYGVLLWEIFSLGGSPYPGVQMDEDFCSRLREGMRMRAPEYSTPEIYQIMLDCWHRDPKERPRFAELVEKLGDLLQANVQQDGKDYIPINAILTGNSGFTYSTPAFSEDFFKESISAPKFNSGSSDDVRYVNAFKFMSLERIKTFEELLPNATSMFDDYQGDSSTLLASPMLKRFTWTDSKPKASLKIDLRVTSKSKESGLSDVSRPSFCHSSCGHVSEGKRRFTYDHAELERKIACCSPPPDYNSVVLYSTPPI
Sequence of MAP2K1 (Q02750 whole entry): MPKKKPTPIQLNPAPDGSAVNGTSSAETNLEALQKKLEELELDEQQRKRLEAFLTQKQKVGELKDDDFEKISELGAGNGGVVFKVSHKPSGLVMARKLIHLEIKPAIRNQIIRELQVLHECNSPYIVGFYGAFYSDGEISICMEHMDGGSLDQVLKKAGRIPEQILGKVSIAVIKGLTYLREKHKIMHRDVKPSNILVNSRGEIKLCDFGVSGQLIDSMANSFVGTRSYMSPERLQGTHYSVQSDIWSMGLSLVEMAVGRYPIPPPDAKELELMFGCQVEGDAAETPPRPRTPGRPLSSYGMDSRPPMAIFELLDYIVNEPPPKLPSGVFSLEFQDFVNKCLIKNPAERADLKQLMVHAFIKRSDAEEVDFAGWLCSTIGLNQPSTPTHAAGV
T6 sequence (Q00536 whole entry): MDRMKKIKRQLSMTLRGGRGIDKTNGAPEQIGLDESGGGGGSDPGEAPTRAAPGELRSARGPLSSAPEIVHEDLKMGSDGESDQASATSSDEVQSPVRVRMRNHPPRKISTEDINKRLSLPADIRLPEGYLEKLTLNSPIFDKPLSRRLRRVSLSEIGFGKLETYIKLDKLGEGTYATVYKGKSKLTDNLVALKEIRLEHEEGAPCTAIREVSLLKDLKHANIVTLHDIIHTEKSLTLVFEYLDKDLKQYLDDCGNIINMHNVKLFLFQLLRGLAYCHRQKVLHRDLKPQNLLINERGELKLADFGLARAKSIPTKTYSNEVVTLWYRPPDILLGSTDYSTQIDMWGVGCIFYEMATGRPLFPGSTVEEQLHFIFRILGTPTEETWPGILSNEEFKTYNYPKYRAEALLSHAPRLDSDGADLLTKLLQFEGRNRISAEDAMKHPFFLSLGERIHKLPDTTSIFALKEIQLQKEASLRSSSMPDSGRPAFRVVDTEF
Sequence of ABL1 (P00519 whole entry): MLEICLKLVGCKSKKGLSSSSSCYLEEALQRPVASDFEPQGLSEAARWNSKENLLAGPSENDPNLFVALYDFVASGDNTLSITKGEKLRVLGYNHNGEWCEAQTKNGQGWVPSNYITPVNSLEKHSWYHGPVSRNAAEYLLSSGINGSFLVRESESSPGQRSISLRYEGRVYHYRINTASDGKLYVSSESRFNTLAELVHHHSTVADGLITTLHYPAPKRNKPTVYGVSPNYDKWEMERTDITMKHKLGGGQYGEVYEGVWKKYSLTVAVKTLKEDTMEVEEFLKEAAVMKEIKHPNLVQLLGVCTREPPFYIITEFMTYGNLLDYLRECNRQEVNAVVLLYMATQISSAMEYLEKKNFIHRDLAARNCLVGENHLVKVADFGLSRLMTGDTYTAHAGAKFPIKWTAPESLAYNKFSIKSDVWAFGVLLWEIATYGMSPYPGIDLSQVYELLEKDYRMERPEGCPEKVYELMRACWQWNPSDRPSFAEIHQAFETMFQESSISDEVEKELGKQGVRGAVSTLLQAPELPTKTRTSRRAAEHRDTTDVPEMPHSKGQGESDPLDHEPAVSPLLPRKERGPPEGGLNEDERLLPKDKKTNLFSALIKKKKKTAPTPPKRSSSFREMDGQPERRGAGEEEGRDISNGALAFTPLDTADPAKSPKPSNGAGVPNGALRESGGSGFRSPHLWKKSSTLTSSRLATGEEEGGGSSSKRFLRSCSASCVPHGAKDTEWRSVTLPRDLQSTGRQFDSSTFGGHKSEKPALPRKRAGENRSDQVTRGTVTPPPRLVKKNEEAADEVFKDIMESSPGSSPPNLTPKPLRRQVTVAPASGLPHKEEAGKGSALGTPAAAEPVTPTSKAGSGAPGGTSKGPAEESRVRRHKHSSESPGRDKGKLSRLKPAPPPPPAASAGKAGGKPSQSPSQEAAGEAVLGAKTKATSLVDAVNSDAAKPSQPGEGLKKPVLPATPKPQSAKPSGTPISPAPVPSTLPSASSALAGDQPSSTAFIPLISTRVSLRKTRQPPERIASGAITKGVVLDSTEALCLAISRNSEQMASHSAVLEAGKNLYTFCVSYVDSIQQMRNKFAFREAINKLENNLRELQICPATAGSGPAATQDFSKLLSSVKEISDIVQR
Sequence of BRAF (P15056 whole entry): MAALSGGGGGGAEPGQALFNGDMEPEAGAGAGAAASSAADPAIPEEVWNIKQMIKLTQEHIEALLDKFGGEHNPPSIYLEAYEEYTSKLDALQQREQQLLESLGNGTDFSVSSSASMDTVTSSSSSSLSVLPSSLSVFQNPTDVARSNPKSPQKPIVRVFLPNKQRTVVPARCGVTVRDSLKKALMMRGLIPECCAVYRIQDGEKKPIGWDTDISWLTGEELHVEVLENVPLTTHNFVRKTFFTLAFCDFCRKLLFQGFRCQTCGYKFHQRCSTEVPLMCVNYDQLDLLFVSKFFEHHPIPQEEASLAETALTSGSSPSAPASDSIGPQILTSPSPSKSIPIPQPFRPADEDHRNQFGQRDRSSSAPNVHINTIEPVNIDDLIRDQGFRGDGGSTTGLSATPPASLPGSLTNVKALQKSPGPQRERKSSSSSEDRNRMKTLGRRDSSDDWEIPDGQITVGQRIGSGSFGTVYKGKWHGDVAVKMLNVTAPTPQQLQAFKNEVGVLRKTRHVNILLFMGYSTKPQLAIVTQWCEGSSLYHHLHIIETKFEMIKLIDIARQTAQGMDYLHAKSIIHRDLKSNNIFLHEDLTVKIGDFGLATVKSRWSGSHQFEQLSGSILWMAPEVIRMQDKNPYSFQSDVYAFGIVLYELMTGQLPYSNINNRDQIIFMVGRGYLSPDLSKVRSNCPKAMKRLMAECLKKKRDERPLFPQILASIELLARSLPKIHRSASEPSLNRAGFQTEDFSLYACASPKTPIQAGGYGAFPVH

ΔTm at 10 µM (ABL1; read-out: 7c): 7 °C | ΔTm at 10 µM (BIKE; read-out: 7c): 10 °C | ΔTm at 10 µM (BRAF; read-out: 7c): 7 °C | ΔTm at 10 µM (CSNK2a2; read-out: 7c): 15 °C | ΔTm at 10 µM (FLT1; read-out: 7c): 5 °C | ΔTm at 10 µM (JNK2; read-out: 7c): 0 °C | ΔTm at 10 µM (MAP2K1; read-out: 7c): 1 °C | ΔTm at 10 µM (MAP2K6; read-out: 7c): 0 °C | ΔTm at 10 µM (MER; read-out: 7c): 3 °C | ΔTm at 10 µM (PCTAIRE1; read-out: 7c): 2 °C | ΔTm at 10 µM (ULK3; read-out: 7c): 3 °C
Structure (SMILES): COc1ccc(OC(C)C)cc1Nc1cncc(-c2ccc(C(=O)O)cc2)n1 [7c]

ΔTm at 10 µM (ABL1; read-out: 6c): 8 °C | ΔTm at 10 µM (BIKE; read-out: 6c): 11 °C | ΔTm at 10 µM (BRAF; read-out: 6c): 8 °C | ΔTm at 10 µM (CSNK2a2; read-out: 6c): 16 °C | ΔTm at 10 µM (FLT1; read-out: 6c): 7 °C | ΔTm at 10 µM (JNK2; read-out: 6c): 0 °C | ΔTm at 10 µM (MAP2K1; read-out: 6c): 1 °C | ΔTm at 10 µM (MAP2K6; read-out: 6c): 3 °C | ΔTm at 10 µM (MER; read-out: 6c): 3 °C | ΔTm at 10 µM (PCTAIRE1; read-out: 6c): 5 °C | ΔTm at 10 µM (ULK3; read-out: 6c): 5 °C
Structure (SMILES): CC(C)Oc1ccc2ccn(-c3cncc(-c4ccc(C(=O)O)cc4)n3)c2c1 [6c]

ΔTm at 10 µM (ABL1; read-out: 2): 7 °C | ΔTm at 10 µM (BIKE; read-out: 2): 13 °C | ΔTm at 10 µM (BRAF; read-out: 2): 6 °C | ΔTm at 10 µM (CSNK2a2; read-out: 2): 15 °C | ΔTm at 10 µM (FLT1; read-out: 2): 7 °C | ΔTm at 10 µM (JNK2; read-out: 2): 1 °C | ΔTm at 10 µM (MAP2K1; read-out: 2): 2 °C | ΔTm at 10 µM (MAP2K6; read-out: 2): 2 °C | ΔTm at 10 µM (MER; read-out: 2): 3 °C | ΔTm at 10 µM (PCTAIRE1; read-out: 2): 2 °C | ΔTm at 10 µM (ULK3; read-out: 2): 7 °C
Structure (SMILES): CC(C)Nc1ccc2cnn(-c3cncc(-c4ccc(C(=O)O)cc4)n3)c2c1 [compound 2, 2]
